Drawing on patent publication US20230192617A1, “AZABICYCLIC(THIO)AMIDES AS FUNGICIDAL COMPOUNDS” (Bayer CropScience Aktiengesellschaft, priority 2020, published 2023), this text covers pest or weed control and inhibition for 15 compounds.

The test system of one assay is Botrytis cinerea. Put plainly: In vivo preventive test on Botrytis cinerea (grey mould). To be noted: 500 ppm of active ingredient, preventive spray on gherkin or cabbage, evaluated 4 to 5 days after inoculation, read-out: efficacy. In short, it runs like this:
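Young gherkin or cabbage plants were sprayed with compound in DMSO/acetone/Tween 80 diluted in water, then inoculated 24 hours later with a B. cinerea spore suspension. Incubation lasted 4 to 5 days: gherkin at 17° C., 90% relative humidity; cabbage at 20° C., 100% relative humidity.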

The subject of another assay is Septoria tritici. Description: B-9. Septoria tritici in vitro cell test. The class given is cell-based. To be noted: Zymoseptoria tritici, 168 h; 20 ppm of active ingredient; 7 days incubation; liquid culture, absorbance; read-out: efficacy (inhibition of fungal growth). In short, it runs like this:
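Compounds from DMSO stocks (final DMSO ≤1%) were added to liquid medium containing S. tritici spores to test inhibition of germination and mycelial growth. After 7 days, mycelium growth was read spectrometrically and inhibition derived from absorbance versus fungicide-free control wells.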

Another assay concerns Pyrenophora teres. Put plainly: B-10. Pyrenophora teres in vitro cell test. It is filed as cell-based. To be noted: 144 h, 20 ppm of active ingredient, 6 days incubation, liquid culture, absorbance, read-out: efficacy (inhibition of fungal growth). A digest of the protocol: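 Liquid-culture assay on a P. teres spore suspension with compounds added to the medium from DMSO solutions, final DMSO ≤1%. Mycelium growth read spectrometrically after 6 days. Inhibition calculated from absorbance against untreated control wells.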

Each structure is given as a SMILES string.

In the case of `O=C(NC[C@H](F)c1ccc(Cl)cc1Cl)c1c(Oc2cccc(C3CC3)c2F)nnc2ccccc12` (racemic) [I-072], in the assay on Botrytis cinerea, the pest or weed control at 500 ppm was in the range of 90 to 100%. The inhibition at 20 ppm in the assay on Septoria tritici and in the assay on Pyrenophora teres was 90 to 100% each time.

As for `Cc1ccc(C(F)CNC(=O)c2c(Oc3cccc(C4CC4)c3F)nnc3c2CCCC3)c(C)c1` (stereo not drawn) [I-137], the pest or weed control at 500 ppm in the assay on Botrytis cinerea fell in the range of 90 to 100%. Moreover, the inhibition (in general, the relative decrease from the control value, in per cent) at 20 ppm in the assay on Septoria tritici fell in the range of 70 to 79%; in the assay with Pyrenophora teres it was 90 to 100%.

Take `Cc1ccc(C(F)(F)CNC(=O)c2c(Oc3cccc(Cl)c3F)nnc3c2CCCC3)c(Cl)c1` [I-140, 3-(3-chloro-2-fluoro-phenoxy)-N-[2-(2-chloro-4-methyl-phenyl)-2,2-difluoro-ethyl]-5,6,7,8-tetrahydrocinnoline-4-carboxamide]: the pest or weed control at 500 ppm in the assay with Botrytis cinerea is 90 to 100%. Moreover, the inhibition at 20 ppm with Septoria tritici and with Pyrenophora teres was 90 to 100% each time.

Regarding `Cc1cc(Cl)ccc1C(F)(F)CNC(=O)c1c(Oc2cccc(Cl)c2F)nnc2c1CCC2` [I-148], the pest or weed control at 500 ppm in the assay with Botrytis cinerea was in the range of 90 to 100%. Also, the inhibition at 20 ppm lay in the range of 80 to 89% in the assay on Septoria tritici and 90 to 100% in the assay on Pyrenophora teres.

As to `Cc1ccc(C(F)(F)CNC(=O)c2c(Oc3cccc(C(F)(F)F)c3)nnc3c2CCC3)c(Cl)c1` [I-142], the pest or weed control at 500 ppm in the assay with Botrytis cinerea is 90 to 100%. For the same compound, the inhibition at 20 ppm in the assay on Septoria tritici and with Pyrenophora teres was 90 to 100% throughout.

As to `O=C(NCC(F)c1ccc(Cl)cc1Cl)c1c(Oc2cccc(C(F)(F)F)c2)nnc2c1COCC2` (stereo not drawn) [I-126], the pest or weed control at 500 ppm in the assay with Botrytis cinerea is 90 to 100%. In addition, the inhibition at 20 ppm with Septoria tritici and in the assay with Pyrenophora teres was 90 to 100% throughout.

As to `Cc1cc(Cl)ccc1C(F)(F)CNC(=O)c1c(Oc2cccc(Cl)c2)nnc2c1CCCC2` [I-146], in the assay on Botrytis cinerea, the pest or weed control at 500 ppm fell in the range of 90 to 100%. Moreover, the inhibition at 20 ppm in the assay on Septoria tritici and in the assay on Pyrenophora teres was 90 to 100% in each case.

`Cc1ccc(C(F)(F)CNC(=O)c2c(Oc3cccc(C(F)F)c3)cnc3ccccc23)c(C)c1` [I-220]: the pest or weed control at 500 ppm in the assay on Botrytis cinerea fell in the range of 90 to 100%. For the same compound, the inhibition at 20 ppm with Septoria tritici and in the assay with Pyrenophora teres was 90 to 100% throughout.

With `Cc1ccc(C(F)(F)CNC(=O)c2c(Oc3cccc(Br)c3F)nnc3c2CCCC3)c(C)c1` [I-128], in the assay on Botrytis cinerea, the pest or weed control at 500 ppm was 90 to 100%. Also, the inhibition at 20 ppm in the assay on Septoria tritici and in the assay on Pyrenophora teres was 90 to 100% each time.

In the case of `Cc1ccc(C(F)CNC(=O)c2c(Oc3cccc(C(F)(F)F)c3)nnc3c2COCC3)c(C)c1` (stereo not drawn) [I-123], the pest or weed control at 500 ppm in the assay on Botrytis cinerea fell in the range of 90 to 100%. Moreover, the inhibition at 20 ppm in the assay with Septoria tritici and in the assay on Pyrenophora teres was 90 to 100% throughout.

On to `Cc1ccc(C(F)(F)CNC(=O)c2c(Oc3cccc(C4CC4)c3F)nnc3ccccc23)c(C)c1` [I-071, 3-(3-cyclopropyl-2-fluoro-phenoxy)-N-[2-(2,4-dimethyl-phenyl)-2,2-difluoro-ethyl]cinnoline-4-carboxamide], for which the pest or weed control at 500 ppm with Botrytis cinerea fell in the range of 90 to 100%. In addition, the inhibition at 20 ppm in the assay on Septoria tritici is 80 to 89%; in the assay with Pyrenophora teres, 90 to 100%.

In the case of `O=C(NCC(F)c1ccc(Cl)cc1Cl)c1c(Oc2cccc(C3CC3)c2)nnc2c1CCCC2` (stereo not drawn) [I-119, 3-(3-cyclopropylphenoxy)-N-[2-(2,4-dichlorophenyl)-2-fluoro-ethyl]-5,6,7,8-tetrahydrocinnoline-4-carboxamide], the pest or weed control at 500 ppm in the assay on Botrytis cinerea is 90 to 100%. The inhibition at 20 ppm in the assay with Septoria tritici and with Pyrenophora teres was 90 to 100% throughout.

For the compound `Cc1ccc(CCNC(=O)c2c(Oc3cccc(C4CC4)c3F)nnc3ccccc23)c(C)c1` [I-070], the pest or weed control at 500 ppm in the assay with Botrytis cinerea lay within 90 to 100%. In addition, the inhibition at 20 ppm with Septoria tritici and with Pyrenophora teres was 90 to 100% in each case.

On to `O=C(NC[C@H](F)c1ccc(Cl)cc1Cl)c1c(Oc2cccc(C(F)(F)F)c2)cnc2ccoc12` (racemic) [I-067], for which the pest or weed control at 500 ppm with Botrytis cinerea fell in the range of 90 to 100%. In addition, the results for the inhibition at 20 ppm in the assay with Septoria tritici and in the assay with Pyrenophora teres were 70 to 79% and 90 to 100%, respectively.

Take `O=C(NCC(F)c1ccc(Cl)cc1Cl)c1c(Oc2cccc(C(F)(F)F)c2)nnc2c1CCC2` (stereo not drawn) [I-186]: the pest or weed control at 500 ppm in the assay on Botrytis cinerea fell in the range of 90 to 100%. For the same compound, the inhibition at 20 ppm in the assay with Septoria tritici and with Pyrenophora teres was 90 to 100% each time.
